# Reference: patent publication US20230263822A1, “MODULATION OF FACTOR 11 EXPRESSION” (Ionis Pharmaceuticals, Inc., priority 2008, published 2023)
# Strand notation (5' to 3'): a small letter for the sugar, then the base; units joined by * are phosphorothioate-linked, units joined directly phosphodiester-linked; [ ] holds rarer units or linkages, { } end groups; capitals alone tell only the bases. e = 2'-O-(2-methoxyethyl) (MOE); [5mC] = 5-methylcytosine; d = 2'-deoxy (DNA)
# Columns and labels:
# Factor 11 mRNA = Factor 11 mRNA in cynomolgus monkey liver, day 55 (Example 46); format: in vivo, cynomolgus monkeys; settings: cynomolgus monkeys, 25 mg/kg
# Procedure: (§1) Groups, each consisting of two male and two female monkeys, were injected subcutaneously with 25 mg/kg of ISIS 416850, ISIS 449709, ISIS 445522, ISIS 449710, ISIS 449707, ISIS 449711, ISIS 449708, 416858, and ISIS 445531. Antisense oligonucleotide was administered to the monkeys at 25 mg/kg three times per week for week 1 and 25 mg/kg twice per week for weeks 2 to 8. A control group, consisting of two male and two female monkeys was injected subcutaneously with PBS according to the same dosing regimen. Body weights were taken 14 days and 7 days before the start of treatment and were then measured weekly throughout the treatment period. Blood samples were collected 14 days and 5 days before the start of treatment and subsequently several times during the dosing regimen for PT and aPTT measurements, and measurement of various hematologic factors. On day 55, the monkeys were euthanized by exsanguination while under deep anesthesia, and organs harvested for further analysis.
# On day 55, RNA was extracted from liver tissue for real-time PCR analysis of Factor 11 using primer probe set LTS00301. Results are presented as percent inhibition of Factor 11, relative to PBS control.
# [1] = Liver function, ALT, AST, bilirubin in cynomolgus monkeys (Example 46); format: in vivo; settings: plasma
# Procedure: as §1
# Plasma concentrations of alanine transaminase (ALT) and aspartate transaminase (AST) were measured and the results are presented in Tables 152 and 153 expressed in IU/L. Plasma levels of bilirubin were also measured and results are presented in Table 154 expressed in mg/dL. As observed in Tables 152-154, there were no significant increases in any of the liver metabolic markers after antisense oligonucleotide treatment.
# [2] = tested on: IL-1β, IL-6, IFN-γ, TNF-α, IL-8, MIP-1α, MCP-1, MIP-1β, RANTES; assay: Cytokine and chemokine assays in cynomolgus monkeys (Example 46); format: in vivo
# Procedure: as §1
# Blood samples obtained from all monkey groups were sent to Pierce Biotechnology (Woburn, Mass.) for measurements of chemokine and cytokine levels. Levels of IL-1β, IL-6, IFN-γ, and TNF-α were measured using the respective primate antibodies and levels of IL-8, MIP-1α, MCP-1, MIP-1β and RANTES were measured using the respective cross-reacting human antibodies. Measurements were taken 14 days before the start of treatment and on day 55, when the monkeys were euthanized.
# human Factor 11 mRNA = assay: Dose-dependent inhibition of human Factor 11 in HepG2 cells, lipofectin 9.375-75 nM (Example 4); format: cell-based; settings: for percent inhibition of Factor 11 at 9.375 nM / percent inhibition of Factor 11 at 18.75 nM / percent inhibition of Factor 11 at 37.5 nM / percent inhibition of Factor 11 at 75 nM: relative to untreated control cells
# Summary of the method: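 HepG2 cells transfected via lipofectin with antisense oligonucleotide at 9.375, 18.75, 37.5 or 75 nM for about 16 h. Factor 11 mRNA quantified by real-time RT-PCR (primer probe set RTS 2966) and normalized to total RNA (RIBOGREEN). Results expressed as percent inhibition versus untreated cells.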
# [3] = day-14 (before start of treatment)
Substance,ALT ([1]; Day 31) [IU/L],AST ([1]; Day 31) [IU/L],Bilirubin ([1]; Day 31) [mg/dL],ALT ([1]; Day 55) [IU/L],AST ([1]; Day 55) [IU/L],Bilirubin ([1]; Day 55) [mg/dL],ALT ([1]; Day −5) [IU/L],AST ([1]; Day −5) [IU/L],Bilirubin ([1]; Day −5) [mg/dL],ALT ([1]; Day −14) [IU/L],AST ([1]; Day −14) [IU/L],Bilirubin ([1]; Day −14) [mg/dL],IFN-γ level ([2]; day 55) [pg/mL],IL-1ß level ([2]; day 55) [pg/mL],IL-6 level ([2]; day 55) [pg/mL],IL-8 level ([2]; day 55) [pg/mL],MCP-1 level ([2]; day 55) [pg/mL],MIP-1ß level ([2]; day 55) [pg/mL],MIP-1α level ([2]; day 55) [pg/mL],RANTES level ([2]; day 55) [pg/mL],other results
"ISIS 449708: 3-8-3, 4-8-4, 2-10-2, 3-10-3 or 4-10-4 MOE microwalk gapmer (Table 46) (antisense eA*e[5mC]*eA*dG*dT*dT*dT*d[5mC]*dT*dG*dG*e[5mC]*eA*eG)",44,56,0.14,46,50,0.14,54,53,0.21,48,74,0.27,18,131,0,85,409,128,23,4561,"Factor 11 mRNA in liver vs PBS control (Factor 11 mRNA): significant reduction of Factor 11 mRNA; TNF-α level ([2]; day 55): 17 pg/mL; IFN-γ level [2, 3]: 27 pg/mL; IL-1ß level [2, 3]: 35 pg/mL; IL-6 level [2, 3]: 1 pg/mL; IL-8 level [2, 3]: 184 pg/mL; MCP-1 level [2, 3]: 361 pg/mL; MIP-1ß level [2, 3]: 19 pg/mL; MIP-1α level [2, 3]: 11 pg/mL; RANTES level [2, 3]: 11666 pg/mL; TNF-α level [2, 3]: 12 pg/mL"
ISIS 445531: 5-8-5 or 6-8-6 MOE microwalk gapmer (Table 44) (antisense eG*eG*e[5mC]*eA*eT*dT*dG*dG*dT*dG*d[5mC]*dA*d[5mC]*eA*eG*eT*eT*eT),57,47,0.13,73,49,0.11,73,46,0.18,84,78,0.22,15,155,1,293,339,84,12,5935,"Factor 11 mRNA in liver vs PBS control (Factor 11 mRNA): significant reduction of Factor 11 mRNA; TNF-α level ([2]; day 55): 16 pg/mL; IFN-γ level [2, 3]: 68 pg/mL; IL-1ß level [2, 3]: 101 pg/mL; IL-6 level [2, 3]: 2 pg/mL; IL-8 level [2, 3]: 83 pg/mL; MCP-1 level [2, 3]: 317 pg/mL; MIP-1ß level [2, 3]: 22 pg/mL; MIP-1α level [2, 3]: 25 pg/mL; RANTES level [2, 3]: 7825 pg/mL; TNF-α level [2, 3]: 9 pg/mL"
"ISIS 449710: 3-8-3, 4-8-4, 2-10-2, 3-10-3 or 4-10-4 MOE microwalk gapmer (Table 46) (antisense e[5mC]*eA*e[5mC]*dA*dG*dT*dT*dT*d[5mC]*dT*dG*dG*d[5mC]*eA*eG*eG)",37,37,0.15,45,64,0.22,42,38,0.19,37,52,0.24,176,286,2,348,474,53,27,22656,"Factor 11 mRNA in liver vs PBS control (Factor 11 mRNA): significant reduction of Factor 11 mRNA; TNF-α level ([2]; day 55): 26 pg/mL; IFN-γ level [2, 3]: 1115 pg/mL; IL-1ß level [2, 3]: 271 pg/mL; IL-6 level [2, 3]: 7 pg/mL; IL-8 level [2, 3]: 29 pg/mL; MCP-1 level [2, 3]: 409 pg/mL; MIP-1ß level [2, 3]: 18 pg/mL; MIP-1α level [2, 3]: 20 pg/mL; RANTES level [2, 3]: 1215 pg/mL; TNF-α level [2, 3]: 72 pg/mL"
412206 (antisense e[5mC]*e[5mC]*eG*eT*eG*d[5mC]*dA*dT*d[5mC]*dT*dT*dT*d[5mC]*dT*dT*eG*eG*e[5mC]*eA*eT) [compound 412206],,,,,,,,,,,,,,,,,,,,,IC50 (human Factor 11 mRNA): 21 nM; percent inhibition of Factor 11 at 9.375 nM (human Factor 11 mRNA): 24%; percent inhibition of Factor 11 at 18.75 nM (human Factor 11 mRNA): 47%; percent inhibition of Factor 11 at 37.5 nM (human Factor 11 mRNA): 69%; percent inhibition of Factor 11 at 75 nM (human Factor 11 mRNA): 86%
"ISIS 449711: 3-8-3, 4-8-4, 2-10-2, 3-10-3 or 4-10-4 MOE microwalk gapmer (Table 46) (antisense eA*e[5mC]*dA*dG*dT*dT*dT*d[5mC]*dT*dG*dG*d[5mC]*eA*eG)",48,47,0.13,54,47,0.13,137,78,0.16,49,58,0.23,22,146,7,110,469,91,17,3029,"TNF-α level ([2]; day 55): 31 pg/mL; IFN-γ level [2, 3]: 29 pg/mL; IL-1ß level [2, 3]: 79 pg/mL; IL-6 level [2, 3]: 2 pg/mL; IL-8 level [2, 3]: 156 pg/mL; MCP-1 level [2, 3]: 264 pg/mL; MIP-1ß level [2, 3]: 24 pg/mL; MIP-1α level [2, 3]: 20 pg/mL; RANTES level [2, 3]: 3687 pg/mL; TNF-α level [2, 3]: 6 pg/mL"
"ISIS 449707: 3-8-3, 4-8-4, 2-10-2, 3-10-3 or 4-10-4 MOE microwalk gapmer (Table 46) (antisense e[5mC]*eA*e[5mC]*eA*dG*dT*dT*dT*d[5mC]*dT*dG*dG*e[5mC]*eA*eG*eG)",52,50,0.13,63,52,0.16,56,53,0.19,54,64,0.27,24,97,1,48,264,49,12,1193,"Factor 11 mRNA in liver vs PBS control (Factor 11 mRNA): significant reduction of Factor 11 mRNA; TNF-α level ([2]; day 55): 16 pg/mL; IFN-γ level [2, 3]: 34 pg/mL; IL-1ß level [2, 3]: 115 pg/mL; IL-6 level [2, 3]: 1 pg/mL; IL-8 level [2, 3]: 106 pg/mL; MCP-1 level [2, 3]: 294 pg/mL; MIP-1ß level [2, 3]: 13 pg/mL; MIP-1α level [2, 3]: 16 pg/mL; RANTES level [2, 3]: 3014 pg/mL; TNF-α level [2, 3]: 6 pg/mL"
"416856 (antisense GGCATTGGTGCACAGTTTCT; 5-10-5 gapmer, further chemistry not given here) [compound 416856]",,,,,,,,,,,,,,,,,,,,,IC50 (human Factor 11 mRNA): 27 nM; percent inhibition of Factor 11 at 9.375 nM (human Factor 11 mRNA): 21%; percent inhibition of Factor 11 at 18.75 nM (human Factor 11 mRNA): 45%; percent inhibition of Factor 11 at 37.5 nM (human Factor 11 mRNA): 58%; percent inhibition of Factor 11 at 75 nM (human Factor 11 mRNA): 74%
